Reference: patent publication US11767374B2, “Method and use of Radix puerariae polysaccharide in promoting lipid-lowering activity” (JIANGXI UNIVERSITY OF TRADITIONAL CHINESE MEDICINE, priority 2020, dated 2023)

System: high-cholesterol hyperlipidemia rats
Assay: In vivo lipid-lowering experiment in high-cholesterol hyperlipidemia rats
Set-up: species or system Wistar rats
Conditions: plasma, positive drug 8 mg/kg, half a month
Source text: 56 male Wistar rats (8 weeks old, body weight: 200 g±20 g) were purchased from Beijing Vital River Laboratory Animal Technology Co., Ltd. All animals were fed with a normal diet adaptively for 1 week.
The rats were sampled every half month to determine the plasma total triglyceride (TG), total cholesterol (TC), low-density lipoprotein (LDL-C), and high-density lipoprotein (HDL-C) levels. 2 months later, all rats were anesthetized with isoflurane, and then blood samples were collected from the orbital vein using capillary tubes. The blood samples were centrifuged (4° C., 4,000 r×min^−1, and 15 min) to obtain plasma samples, a kit (purchased from Nanjing Jiancheng Biotechnology Co., Ltd., China) was used to make a standard curve, and a chromogenic reaction was conducted according to specified steps to determine the plasma TG, TC, LDL-C, and HDL-C levels, thereby determining whether hyperlipidemia models were successfully constructed.
The rats were intragastrically administered for half a month. The night before the experiment, the rats were fasted; and on the day of the experiment, the rats were weighed and resulting body weights were recorded. The rats were anesthetized with isoflurane, then blood was collected from the orbit and placed in a heparin sodium centrifuge tube, and blood samples were centrifuged (4° C., 4,000 r×min^−1, and 15 min) to obtain plasma samples. A kit (purchased from Nanjing Jiancheng Biotechnology Co., Ltd., China) was used to make a standard curve, and the plasma TG, TC, LDL-C, and HDL-C levels were determined according to specified steps. The rats were sacrificed through cervical dislocation, and then a liver tissue was collected and weighed. A liver index was calculated according to the following formula: liver index=liver weight (g)/rat weight (g).
Data analysis: In this experiment, the SPSS11.5 version was used to analyze data (3 repetitions), and analysis of variance (ANOVA) and intergroup Duncan multiple comparison were adopted.

CCC(C)(C)C(=O)O[C@H]1C[C@@H](C)C=C2C=C[C@H](C)[C@H](CC[C@@H]3C[C@@H](O)CC(=O)O3)[C@H]21 [Simvastatin, simvastatin]
HDL-C: 2.89 ± 0.44 b mmol/L | LDL-C: 0.51 ± 0.09 b mmol/L | TG: 0.87 ± 0.27 c mg/mL
